Data set [1] is filed under the species Homo sapiens. Nature of the data set: Inhibition of Rho/MRTF/SRF pathway in human primary dermal fibroblasts assessed as reduction in LPA-stimulated CTGF mRNA expression by measuring CTGF mRNA level at 10^-6 M preincubated for 72 hrs followed by LPA stimulation and measured after 1 hr by qPCR analysis relative to control. Further details: scale not given: the % may be the effect or the level left.

Data set [2] is described as follows: Inhibition of Rho/MRTF/SRF pathway (unknown origin) expressed in human PC3 cells assessed as reduction in Galpha12 Q231L-stimulated MRTF-selective SRE.L promoter-driven luciferase activity after overnight incubation by luminescence assay. The format is cell-based.
Data set [3] relates to PC-3. Nature of the data set: Cytotoxicity against human PC3 cells assessed as reduction in cell viability by CellTiter-Fluor assay. The format is cell-based.
The nature of data set [4]: Inhibition of Rho/MRTF/SRF pathway (unknown origin) expressed in HEK293T cells assessed as reduction in Galpha12-stimulated MRTF-selective SRE.L promoter-driven luciferase activity after overnight incubation by luminescence assay. The format is cell-based, Homo sapiens.
Data set [5] concerns PC-3. The experiment in a line: Cytotoxicity against human PC3 cells assessed as reduction in cell viability up to 100 uM by WST-1 assay relative to control. Type of data set: cell-based.
Data set [6] is described as follows: Thermodynamic solubility of the compound. The format is physicochemical. The conditions noted are these: read-out: Therm_solubility.
Data set [7] is described as follows: AUC in CD-1 mouse at 10 mg/kg, iv by LC-MS/MS analysis. The format is ADME, organism-based. The conditions noted are these: in vivo.
The nature of data set [8]: AUC in CD-1 mouse at 20 mg/kg, po by LC-MS/MS analysis. Type of data set: ADME, organism-based. The conditions noted are these: in vivo.
Data set [9] in a line: Half-life in CD-1 mouse at 20 mg/kg, po by LC-MS/MS analysis. The format is ADME, organism-based. The conditions noted are these: in vivo.
Data set [10] in a line: Clearance in CD-1 mouse at 10 mg/kg, iv by LC-MS/MS analysis. The conditions noted are these: in vivo. Type of data set: ADME, organism-based.
Data set [11] in a line: Oral bioavailability in CD-1 mouse at 20 mg/kg by LC-MS/MS analysis. The format is ADME, organism-based. The conditions noted are these: in vivo.
Data set [12] can be described thus: Cmax in CD-1 mouse at 10 mg/kg, iv by LC-MS/MS analysis. Type of data set: ADME, organism-based. Further details: dose 10 mg/kg, route intravenous. The conditions noted are these: in vivo.
Data set [13] is described as follows: Half-life in CD-1 mouse at 10 mg/kg, iv by LC-MS/MS analysis. The format is ADME, organism-based. The conditions noted are these: in vivo.
For data set [14], the system named is HEK-293T. Nature of the data set: Cytotoxicity against HEK293T cells assessed as reduction in cell viability up to 100 uM by WST-1 assay relative to control. The conditions noted are these: human. The format is cell-based.
A short description of data set [15]: Cmax in CD-1 mouse at 20 mg/kg, po by LC-MS/MS analysis. The format is ADME, organism-based. The conditions noted are these: in vivo. Further details: dose 20 mg/kg, route oral.
The nature of data set [16]: Half-life in CD-1 mouse liver microsomes at 1 uM in presence of NADPH by LC-MS/MS analysis. The format is ADME, Microsome.
Data set [17] has as its system PC-3. Nature of the data set: Cytotoxicity against human PC3 cells assessed as reduction in cell viability up to 100 uM by CellTiter-Fluor assay. The format is cell-based.
The species entered for data set [18] is Homo sapiens. The experiment in a line: Inhibition of Rho/MRTF/SRF pathway (unknown origin) expressed in human PC3 cells assessed as reduction in Galpha12 Q231L-stimulated MRTF-selective SRE.L promoter-driven luciferase activity up to 100 uM after overnight incubation by luminescence assay. The format is cell-based.
The nature of data set [19]: Cmax in CD-1 mouse at 30 mg/kg, po by LC-MS/MS analysis. Type of data set: ADME, organism-based. The arrangement: dose 30 mg/kg, route oral. The conditions noted are these: in vivo.
Data set [20] can be described thus: Oral bioavailability in CD-1 mouse at 30 mg/kg by LC-MS/MS analysis. Type of data set: ADME, organism-based. The conditions noted are these: in vivo.
The nature of data set [21]: AUC in CD-1 mouse at 10 mg/kg, po by LC-MS/MS analysis. The format is ADME, organism-based. The conditions noted are these: in vivo.
Data set [22] is filed under the species Homo sapiens. Nature of the data set: Inhibition of Rho/MRTF/SRF pathway in human primary dermal fibroblasts assessed as reduction in LPA-stimulated CTGF mRNA expression preincubated for 48 hrs followed by LPA stimulation and measured after 1 hr by qPCR analysis.
The nature of data set [23]: Half-life in CD-1 mouse at 30 mg/kg, po by LC-MS/MS analysis. The format is ADME, organism-based. The conditions noted are these: in vivo.
Data set [24] can be described thus: Equilibrium solubility of the compound in phosphate buffer saline. Type of data set: physicochemical.
Data set [25] in a line: Half-life in CD-1 mouse at 3 mg/kg, iv by LC-MS/MS analysis. The conditions noted are these: in vivo. Type of data set: ADME, organism-based.
Data set [26] is filed under the species Homo sapiens. Nature of the data set: Inhibition of Rho/MRTF/SRF pathway in human primary dermal fibroblasts assessed as reduction in LPA-stimulated CTGF mRNA expression preincubated for 72 hrs followed by LPA stimulation and measured after 1 hr by qPCR analysis.
Data set [27] can be described thus: Oral bioavailability in CD-1 mouse at 10 mg/kg by LC-MS/MS analysis. Type of data set: ADME, organism-based. The conditions noted are these: in vivo.
The nature of data set [28]: Half-life in CD-1 mouse at 3 mg/kg, po by LC-MS/MS analysis. The format is ADME, organism-based. The conditions noted are these: in vivo.
The nature of data set [29]: Cmax in CD-1 mouse at 3 mg/kg, iv by LC-MS/MS analysis. The format is ADME, organism-based. Further details: dose 3 mg/kg, route intravenous. The conditions noted are these: in vivo.
Data set [30] can be described thus: AUC in CD-1 mouse at 3 mg/kg, po by LC-MS/MS analysis. Type of data set: ADME, organism-based. The conditions noted are these: in vivo.
The nature of data set [31]: Oral bioavailability in CD-1 mouse at 3 mg/kg by LC-MS/MS analysis. The format is ADME, organism-based. The conditions noted are these: in vivo.
Data set [32] in a line: Clearance in CD-1 mouse at 3 mg/kg, iv by LC-MS/MS analysis. The conditions noted are these: in vivo. The format is ADME, organism-based.
Data set [33] is described as follows: Cmax in CD-1 mouse at 10 mg/kg, po by LC-MS/MS analysis. Type of data set: ADME, organism-based. Further details: dose 10 mg/kg, route oral. The conditions noted are these: in vivo.
Data set [34] can be described thus: AUC in CD-1 mouse at 3 mg/kg, iv by LC-MS/MS analysis. The conditions noted are these: in vivo. The format is ADME, organism-based.
For data set [35], the system named is Mus musculus. Nature of the data set: Antifibrotic activity in bleomycin-induced C57BL/6 mouse model of dermal fibrosis assessed as decrease in dermal thickness at 3 to 10 mg/kg, po administered via gavage for 14 days measured post-last dose by Masson's trichrome-staining based microscopic method. Type of data set: functional, organism-based.
Data set [36] in a line: Cmax in CD-1 mouse at 3 mg/kg, po by LC-MS/MS analysis. The format is ADME, organism-based. Further details: dose 3 mg/kg, route oral. The conditions noted are these: in vivo.
In data set [37] the test system is Mus musculus. The experiment in a line: Antifibrotic activity in bleomycin-induced C57BL/6 mouse model of dermal fibrosis assessed as decrease in hydroxyproline content at 3 to 10 mg/kg, po administered via gavage for 14 days measured post-last dose. The format is functional, organism-based.
Data set [38] can be described thus: AUC in CD-1 mouse at 30 mg/kg, po by LC-MS/MS analysis. Type of data set: ADME, organism-based. The conditions noted are these: in vivo.
Data set [39] in a line: Half-life in CD-1 mouse at 10 mg/kg, po by LC-MS/MS analysis. The format is ADME, organism-based. The conditions noted are these: in vivo.

≈ marks a conversion by molar mass, not a printed value. Calls of active or inactive are those of the source. No cut-off for these calls is given here.

In the case of `COC(=O)c1ccc2c(c1)NC(=O)/C2=C(\Nc1ccc(N(C)C(=O)CN2CCN(C)CC2)cc1)c1ccccc1` [NINTEDANIB], the Activity in data set [1] came out at 45%. The figures for the IC50 in [2] and in data set [3] were 1300 nM and less than 30000 nM, respectively.

On to `O=C(O)CCCSc1nnc(-c2ccc(Cl)cc2Cl)o1`, for which the results for the IC50 in [4] and in data set [2] were 0.84 nM and 1.8 nM, respectively. The Activity in data set [5] and in data set [14] was less than 5% in each case. The solubility thermodynamic in data set [6] turned out to be 841 µM (≈ 280 µg/mL). Further, the area under the curve (AUC) is 10700 ng·h/mL in data set [7] and 11100 ng·h/mL in [8]. Also, the half-life in [9] was 1.2 h; in [13], 1.4 h. In data set [10], this molecule registered a clearance of 15.5 mL/min/kg. In addition, the bioavailability in data set [11] was 52%. Besides, the peak concentration (Cmax) in data set [12] was 35600 ng/mL; in data set [15] it was 23200 ng/mL. The t1/2 in data set [16] was more than 1 h.

Turning to `Cc1ccc(=O)n(-c2ccccc2)c1` [PIRFENIDONE], the Activity in [1] is 91%; in data set [17], “Toxic”. For the same molecule, in [18], the inhibition result is “inactive”.

For `O=C(O)CCCSc1nnc(-c2ccc(C3CC3)cc2Cl)o1`, the IC50 in [4] and in data set [2] was 0.001 nM throughout. In addition, the Cmax was found to be 10100 ng/mL in [19], 8140 ng/mL in data set [29], 1430 ng/mL in data set [33] and 397 ng/mL in [36]. Moreover, the bioavailability in data set [20] stood at 29%; in [27], 17%; in data set [31] it was 11%. In addition, the Activity in data set [5] and in data set [14] was less than 5% throughout. Moreover, the AUC in data set [21] is 1830 ng·h/mL; in data set [30] it was 361 ng·h/mL; in [34], 3260 ng·h/mL; in data set [38], 9500 ng·h/mL. Further, the inhibition result in data set [22] is “inactive”. The half-life in [23] is 2.2 h; in data set [25], 1.7 h; in data set [28], 1.6 h; in [39], 1.8 h. The molecule also came in with a solubility thermodynamic in data set [24] of more than 1000 µM. In addition, the inhibition entry in data set [26] was “Dose-dependent effect”. Also, in data set [32], the clearance worked out at 15.4 mL/min/kg. Also, the result in data set [35] and in data set [37] was Active. In addition, in data set [16], the t1/2 amounted to 0.783 h.
